This is an account of results in patent US8524738B2, “Quinolinones and quinoxalinones as antibacterial composition” (Toyama Chemical Co., Ltd., priority 2005, dated 2013).

One data set has as its system Vero cells. Briefly: Cytotoxicity Test (XTT) on Vero cells. It counts as cell-based. Particulars: 51.2 μg/mL of test compound, 3 days at 37° C., XTT absorbance ratio of treated to untreated well. As to the method: Test compounds were initially dissolved in dimethylsulfoxide. […]. After incubation, absorbance was read at 450 nm and 655 nm in a spectrophotometric microplate reader. The values were expressed as the ratio between the value for the well treated with 51.2 μg/mL of each test compound and the value for the well untreated with the test compound (T/C).

For data set [1], the system named is Methicillin-resistant Staphylococcus aureus (S. aureus F-3095). Briefly: Sensitivity Test 2: antibacterial activity (MIC) by micro-dilution method. It counts as cell-based. The method, then:
(§1) Test compounds were initially dissolved in dimethylsulfoxide. Antibacterial activities (MICs) of the same compounds were determined by the micro-dilution method as recommended by the Japanese Society of Chemotherapy.
(§2) Staphylococcus aureus (S. aureus FDA209P) was used as the test organism. The bacterial cells were grown overnight at 35° C. on Mueller-Hinton agar (MHA) plates. The bacterial cells were then suspended in sterile saline and adjusted to the turbidity of a 0.5 McFarland standard. The inoculum was prepared by 10-fold dilution of this suspension. Approximately 0.005 mL aliquots of the inoculum prepared above were subsequently inoculated into Cation-adjusted Mueller-Hinton broth (CAMHB, 100 μL/well) including the test compounds for overnight incubation at 35° C.
Methicillin-resistant Staphylococcus aureus (S. aureus F-3095) was used as the test organism. Antibacterial activities (MICs) were determined in the same manner as in Test Example 1.

The subject of data set [2] is Staphylococcus aureus (S. aureus FDA209P). Briefly: Sensitivity Test 1: antibacterial activity (MIC) by micro-dilution method. The data set is classed as cell-based. The method, then:
as §1, §2

The subject of another data set is S. aureus Smith. The experiment in a line: Infection Test: mice infected intraperitoneally with S. aureus Smith. It counts as in vivo. The note with it: ICR mice, 5 per group; S. aureus Smith i.p.; 10 mg/kg subcutaneously once at 1 hour after infection; survivors recorded 3 days after infection. The method, then: S. aureus Smith which was grown overnight at 37° C. on Mueller-Hinton agar (MHA) plates were suspended to give a final concentration of 10^9 CFU/mL. The inoculum was prepared by diluting this suspension 10-fold in 1/15 mol/L phosphate buffer (pH 7) containing 5.6% mucin. ICR mice (4 to 4.5 weeks of age, male, 5 mice per group) were intraperitoneally administered with the inoculum (approximately 2×10^7 CFU per mice) to induce infection.
After dissolving the test compounds in 0.1 mol/L hydrochloric acid, 20% 2-hydroxypropyl-β-cyclodextrin (HP-β-CD) or a mixture of 20% HP-β-CD and 0.1 mol/L hydrochloric acid at a proportion of 1:1 was added to give a final concentration of 1 mg/mL. Each of the test compound solutions (10 mg/kg) was subcutaneously administered once to a group of mice at 1 hour after infection. The control group was administered with 10% HP-β-CD. The mice were observed daily and the number of surviving mice in each group was recorded 3 days after infection.

[3] abbreviates: Methicillin-resistant S. aureus F-3095, same manner as in Test Example 1, read-out: MIC.
Where [4] appears, read: S. aureus FDA209P, CAMHB, overnight incubation at 35° C., lowest concentration with virtually no growth, read-out: MIC.

In brackets after ≈: the same amount, converted by molar mass. Where a name gives a salt, the structure may show the parent alone. Read-outs that look alike come from different tables or passages of the source.

Turning to `COc1ccc2ncc(=O)n(CCC3(O)CCC(NCc4cc5c(cn4)OCCO5)CC3)c2c1` (single isomer, unassigned) [389(B), 1-(2-(4-((2,3-dihydro(1,4)dioxino(2,3-c)pyridin-7-ylmethyl)amino)-1-hydroxycyclohexyl)ethyl)-7-methoxyquinoxalin-2(1H)-one], in the data set on Vero cells, the T/C is listed as greater than 50%. Moreover, the minimum inhibitory concentration (MIC) in data set [1] (setting [3]) came to 0.0625 µg/mL (≈ 0.134 µM); in data set [2] (setting [4]) it was 0.0156 µg/mL (≈ 0.0334 µM). As for `COc1ccc2c(C)cc(=O)n(CCN3CCC(NCc4ccc5c(c4)OCCO5)CC3)c2c1` [Example 2, 1-(2-(4-((2,3-dihydro-1,4-benzodioxin-6-ylmethyl)amino)piperidin-1-yl)ethyl)-7-methoxy-4-methylquinolin-2(1H)-one], the MIC in data set [1] and in data set [2] (setting [4]) was 0.0313 µg/mL (≈ 0.0675 µM) each time. Besides, the “Number of surviving mice” value in the data set with S. aureus Smith is reported as 4. As to `COc1ccc2c(C)cc(=O)n(CCCC3(C(=O)O)CCN(CCSc4cccs4)CC3)c2c1` [Example 7, 4-(3-(7-methoxy-4-methyl-2-oxoquinolin-1(2H)-yl)propyl)-1-(2-(2-thienylthio)ethyl)piperidine-4-carboxylic acid], the T/C with Vero cells is greater than 50%. For the same compound, in data set [2] (setting [4]), the MIC turned out to be 0.25 µg/mL (≈ 0.499 µM). Taken in the same sequence, the figures for `O=c1ccc2ccccc2n1CCN1CCC(NCc2ccc3c(c2)OCCO3)CC1` [Example 63, 1-(2-(4-(2,3-dihydro-1,4-benzodioxin-6-ylmethyl)amino)piperidin-1-yl)ethyl)-quinolin-2(1H)one hydrochloride] were greater than 50% and 0.0625 µg/mL. For `COc1ccc2ccc(=O)n(CCN3CCC(NCc4cc5c(cn4)OCCO5)CC3)c2c1` [Example 64, 1-(2-(4-((2,3-dihydro(1,4)dioxino(2,3-c)pyridin-7-ylmethyl)amino)piperidin-1-yl)ethyl)-7-methoxyquinolin-2(1H)-one], the MIC in data set [1] (setting [3]) and in data set [2] (setting [4]) was 0.0156 µg/mL (≈ 0.0346 µM) in each case.

On to `COc1ccc2ncc(=O)n(CCN3CCC(NCc4ccc5c(c4)NC(=O)CS5)CC3)c2c1` [Example 91, 6-(((1-(2-(7-methoxy-2-oxoquinoxaline-1-(2H)-yl)ethyl)piperidin-4-yl)amino)methyl)-2H-1,4-benzothiazine-3(4H)-one], for which the MIC in data set [1] (setting [3]) and in data set [2] (setting [4]) was 0.0313 µg/mL (≈ 0.0653 µM) throughout. In the data set on S. aureus Smith, the “Number of surviving mice” value is reported as 5. In the case of `COc1ccc2ncc(=O)n(CCN3CCC(NCc4ccc5c(c4)OCCO5)CC3)c2c1` [Example 117, 1-(2-(4-((2,3-dihydro-1,4-benzodioxin-6-ylmethyl)amino)piperidin-1-yl)ethyl)-7-methoxyquinoxalin-2(1H)-one hydrochloride], the MIC in data set [1] and in data set [2] (FDA209P) was 0.0313 µg/mL throughout. Also, the “Number of surviving mice” value in the data set on S. aureus Smith is 5. With `COc1ccc2ncc(=O)n(CCN3CCC(NCc4ccc5c(n4)NC(=O)CS5)CC3)c2c1` [Example 179, 6-(((1-(2-(7-methoxy-2-oxoquinoxalin-1(2H)-yl)ethyl)piperidin-4-yl)amino)methyl)-2H-pyrido(3,2-b)(1,4)thiazin-3(4H)-one], the MIC in data set [1] (setting [3]) worked out at 0.0313 µg/mL (≈ 0.0651 µM); in data set [2] (setting [4]), 0.0156 µg/mL (≈ 0.0325 µM). The “Number of surviving mice” value in the data set on S. aureus Smith is given as 5. In data set [2] (FDA209P), `CNC(=O)c1cc(=O)n(CCN2CCC(NCC#Cc3ccccc3)CC2)c2cc(OC)ccc12` [Example 344, 7-methoxy-N-methyl-2-oxo-1-(2-(4-(3-phenyl-2-propyn-1-ylamino)piperidin-1-yl)ethyl)-1,2-dihydroquinoline-4-carboxamide hydrochloride] came in with an MIC of 0.125 µg/mL. Regarding `O=c1cnc2ccc(F)cc2n1CCN1CCC(NCc2ccc3c(c2)OCCO3)CC1` [Example 346, (1-(2-(4-((2,3-dihydro-1,4-benzodioxin-6-ylmethyl)amino)piperidin-1-yl)ethyl)-7-fluoroquinoxalin-2(1H)-one hydrochloride], the MIC in data set [2] (setting [4]) came out at 0.0156 µg/mL. `CCc1ccc(CNC2CCN(CCn3c(=O)cnc4ccc(F)cc43)CC2)cc1` [Example 347, 1-(2-(4-(4-ethylbenzylamino)piperidin-1-yl)ethyl)-7-fluoroquinoxalin-2(1H)-one hydrochloride] registered a minimum inhibitory concentration (MIC) in data set [2] (FDA209P) of 0.0156 µg/mL.

`O=c1cnc2ccc(F)cc2n1CCN1CCC(NCc2cc3ccccc3s2)CC1` [Example 349, 1-(2-(4-((benzo[b]thiophen-2-yl)methylamino)piperidin-1-yl)ethyl)-7-fluoroquinoxalin-2(1H)-one hydrochloride] gave an MIC in data set [2] (FDA209P) of 0.0156 µg/mL.

`O=c1cnc2ccc(F)cc2n1CCN1CCC(NCc2cc(-c3cccs3)on2)CC1` [Example 351, 7-fluoro-1-(2-(4-((5-(thiophen-2-yl)isoxazol-3-yl)methylamino)piperidin-1-yl)ethyl)quinoxalin-2(1H)-one hydrochloride] registered a minimal inhibitory concentration (MIC) in data set [2] (FDA209P) of 0.0078 µg/mL. The same measure, in the same setting: in the case of `CCc1ccc(CNC2CCN(CCn3c(=O)cnc4ccc(OC)cc43)CC2)cc1` [Example 353, 1-(2-(4-(4-ethylbenzylamino)piperidin-1-yl)ethyl)-7-methoxyquinoxalin-2(1H)-one hydrochloride] it was 0.0156 µg/mL; in that of `COc1ccc2ncc(=O)n(CCN3CCC(NCc4ccc(C)c(F)c4)CC3)c2c1` [Example 354, 1-(2-(4-(3-fluoro-4-methylbenzylamino)piperidin-1-yl)ethyl)-7-methoxyquinoxalin-2(1H)-one hydrochloride], 0.0078 µg/mL; in that of `COc1ccc2ncc(=O)n(CCN3CCC(NCc4nc5c(cc4Cl)SCC(=O)N5)CC3)c2c1` [Example 355, 1-(2-(4-((7-chloro-3-oxo-3,4-dihydro-2H-pyrido[3,2-b][1,4]thiazin-6-yl)methylamino)piperidin-1-yl)ethyl)-7-methoxyquinoxalin-2(1H)-one hydrochloride], 0.0156 µg/mL. The compound `COc1ccc2ncc(=O)n(CCN3CCC(NCc4ccc5ccccc5c4)CC3)c2c1` [Example 356, 7-methoxy-1-(2-(4-((naphthalen-2-yl)methylamino)piperidin-1-yl)ethyl)quinoxalin-2(1H)-one hydrochloride] had an MIC in data set [2] (FDA209P) of 0.0156 µg/mL. As for `COc1ccc2ncc(=O)n(CCN3CCC(NCc4cc5ccccc5s4)CC3)c2c1` [Example 357, 1-(2-(4-((benzo[b]thiophen-2-yl)methylamino)piperidin-1-yl)ethyl)-7-methoxyquinoxalin-2(1H)-one hydrochloride], in data set [2] (FDA209P), the MIC worked out at 0.0156 µg/mL. For the compound `COc1ccc2ncc(=O)n(CCN3CCC(NCc4cc5sccc5s4)CC3)c2c1` [Example 360, 1-(2-(4-(((thieno[3,2-b]thiophen-2-yl)methylamino)piperidin-1-yl)ethyl)-7-methoxyquinoxalin-2(1H)-one hydrochloride], in data set [2] (setting [4]), the minimum inhibitory concentration (MIC) amounted to 0.0078 µg/mL. `O=c1cnc2ccc(Br)cc2n1CCN1CCC(NCc2ccc3c(c2)OCCO3)CC1` [Example 363, 1-(2-(4-((2,3-dihydro-1,4-benzodioxin-6-ylmethyl)amino)piperidin-1-yl)ethyl)-7-bromoquinoxalin-2(1H)-one hydrochloride] displayed an MIC in data set [2] (FDA209P) of 0.0313 µg/mL. `O=C1CSc2cc(Cl)c(CNC3CCN(CCn4c(=O)cnc5ccc(F)cc54)CC3)nc2N1` [Example 368, 1-(2-(4-((7-chloro-3-oxo-3,4-dihydro-2H-pyrido[3,2-b][1,4]thiazin-6-yl)methylamino)piperidin-1-yl)ethyl)-7-fluoroquinoxalin-2(1H)-one hydrochloride] yielded an MIC in data set [2] (FDA209P) of 0.0156 µg/mL. The same measure, in the same setting: in the case of `COc1ccc2ncc(=O)n(CCN3CCC(NCc4ccc5c(c4)SCCS5)CC3)c2c1` [Example 370, 1-(2-(4-((2,3-dihydro-1,4-benzodithiin-6-ylmethyl)amino)piperidin-1-yl)ethyl)-7-methoxyquinoxalin-2(1H)-one hydrochloride] it was 0.0039 µg/mL. The same measure, in the same setting: in the case of `COc1ccc2ncc(=O)n(CCN3CCC(NCc4cc5c(cn4)OCCCO5)CC3)c2c1` [Example 375, hydrochloride] it was 0.0156 µg/mL; in that of `COc1ccc2ncc(=O)n(CCN3CCC(NCc4ccc5c(n4)NC(=O)CO5)CC3)c2c1` [Example 400, 7-methoxy-1-(2-(4-((3-oxo-3,4-dihydro-2H-pyrido[3,2-b][1,4]oxazin-6-yl)methylamino)piperidin-1-yl)ethyl)quinoxalin-2(1H)-one hydrochloride], 0.0156 µg/mL.
